# Source: US11046954B2, “Targeted protein degradation to attenuate adoptive T-cell therapy associated adverse inflammatory responses” (Dana-Farber Cancer Institute, Inc., priority 2015, dated 2021)
# Columns and labels:
# FKBP*-KRASG12V = experiment: Immunoblot of NIH3T3 cells expressing FKBP* fused to KRASG12V: degradation; format: cell-based; conditions: 1 μM, 24 hours
# Protocol: (§1) FIG. 19 is an immunoblot of NIH3T3 cells expressing KRASG12V allele fused to FKBP* in the N-terminus or C-terminus. Cells were treated with 500 nM dFKBP7 for the indicated time. Cells were harvested and immunoblotted to measure degradation of FKBP*-KRASG12V and downstream surrogates of KRAS signaling (e.g. pMEK and pAKT).
# (§2) FIG. 20 is an immunoblot of NIH3T3 cells expressing FKBP* fused to the N-terminus of KRASG12V treated with luM of the indicated dFKBP heterobifunctional compounds for 24 hours. Cells were harvested and immunoblotted to measure degradation of FKBP*-KRASG12V and downstream surrogates of KRAS signaling (e.g. pMEK and pAKT).
# as §2, with “21” for “20”, “with” for “with luM of”, “concentrations of dFKBP13” for “dFKBP heterobifunctional compounds”
# (§3) FIG. 22 is an immunoblot of NIH3T3 cells expressing FKBP* fused to the N-terminus of KRASG12V treated with luM dFKBP13 for the indicated time. Cells were harvested and immunoblotted to measure degradation of FKBP*-KRASG12V and downstream surrogates of KRAS signaling (e.g. pMEK and pAKT).
# (§4) Cells were treated with 500 nM dFKBP7 for the indicated time. Cells were harvested and immunoblotted to measure degradation of FKBP*-KRAS and downstream surrogates of KRAS signaling (e.g. pMEK and pAKT).
# (§5) Western blotting of NIH3T3 cells expressing dTAG-KRASG12V were treated with 1 μM of the indicated dFKBP heterobifunctional compounds for 24 hours. Cells were harvested and immunoblotted to measure degradation of FKBP*-KRAS and downstream surrogates of KRAS signaling (e.g. pMEK and pAKT).
# (§6) Western blotting of NIH3T3 cells expressing FKBP* fused to the N-terminus of KRAS treated with the indicated concentrations of dFKBP13 for 24 hours. Cells were harvested and immunoblotted to measure degradation of FKBP*-KRAS and downstream surrogates of KRAS signaling (e.g. pMEK and pAKT).
# (§7) To evaluate the kinetic control of targeted degradation of dTAG-KRAS, dFKBP13 was administered by increased duration. Western blotting of NIH3T3 cells expressing FKBP* fused to the N-terminus of KRAS treated with 1 μM dFKBP13 for the indicated time. Cells were harvested and immunoblotted to measure degradation of FKBP*-KRAS and downstream surrogates of KRAS signaling (e.g. pMEK and pAKT).
# [1] = system: downstream surrogates of KRAS signaling (e.g. pMEK and pAKT); experiment: Immunoblot of NIH3T3 cells expressing FKBP*-KRASG12V: downstream KRAS signaling; format: cell-based; conditions: NIH3T3 FKBP*-KRASG12V; 1 μM, 24 hours
# Protocol: as §1, §2
# as §3, with “21” for “22”, “the indicated concentrations of” for “luM”, “24 hours.” for “the indicated time.”
# as §3, §4, §5, §6, §7
smiles,measurement,setting,value
CC[C@H](C(=O)N1CCCC[C@H]1C(=O)O[C@H](CCc1ccc(OC)c(OC)c1)c1cccc(OCC(=O)NCCCCCCCCNC(=O)COc2cccc3c2C(=O)N(C2CCC(=O)NC2=O)C3=O)c1)c1cc(OC)c(OC)c(OC)c1 (some centres unmarked) [dFKBP9],degradation of FKBP*-KRASG12V,FKBP*-KRASG12V,potent degradation
same,"inhibition of downstream signaling (pMEK, pAKT)",[1],inhibition of downstream signaling
